Test results as given in patent US12517098B2, “Monitoring polysorbate hydrolysis in pharmaceutical formulations using an ultrasensitive extraction-free fatty acid quantitation method” (Regeneron Pharmaceuticals, Inc., priority 2021, dated 2026).

Key:
[1] = Loss of heavy-isotope-labeled fatty acids during incubation (adsorption to container); format: physicochemical; conditions: 1% PS20, 200 mg/mL mAb3, 37° C., plastic tubes
Procedure: The hydrolysis of PS20 in mAb formulations used for the fatty acid quantitation method of the invention was optimized by mixing 60 μL of 200 mg/mL mAb-3 (10 mM histidine, pH 6.3) with 0.62 μL, 1.26 μL, 3.2 μL and 6.8 μL 10% PS20 with or without 1.5 μL ISTD mixture (200 μg/mL lauric-d23 acid, 40 μg/mL myristic-d27 acid, and oleic acid-^13C18 in 20% methanol) in Eppendorf plastic tubes (category number 022431064) or Waters glass vials (SKU 600000668CV), […] Incubation samples were analyzed by LC multiple reaction monitoring (LC-MRM) after extraction (Table 2). Incubation conditions were optimized for measuring fatty acid content using LC-MRM after extraction. Fatty acids were extracted from mAb solution using an extraction protocol developed by Honemann et al. with an optimized precipitation buffer and extraction time (Honemann et al.). […] Subsequently, 40 μL of the supernatant was transferred to a 96-well plate, and 5 μL was subjected to LC-MRM for quantitation. […] Elution was performed at 0.4 mL/minute, and peaks at 1-7 minutes were analyzed using an ESI source operating in negative mode, with a gas temperature of 200° C., gas flow of 12 L/minute, nebulizer gas pressure of 20 psi, sheath gas temperature of 300° C., sheath gas flow of 11 L/min, capillary voltage of −3000 V, and nozzle voltage of 500 V. Lauric acid and lauric-d23 acid were monitored at 199.1/199.1 and 222.3/222.3; myristic acid and myristic-d27 acid were monitored at 227.2/227.2 and 254.4/254.4; palmitic acid, oleic acid, oleic acid-^13C18, stearic acid, and linoleic acid were monitored at 255.2/255.2, 281.2/281.2, 299.2/299.2, 283.2/283.2, and 279.2/279.2 with CE 5, respectively. […] Peak integration was performed by Skyline, and fatty acid concentrations were calculated based on a calibration curve created from a spiked-in fatty acid concentration plot against To investigate why fatty acids were lost during incubation, isotope-labeled fatty acids were employed. […]

[2] = Solubility of free fatty acid in the formulation; format: physicochemical; conditions: mAb formulation, aqueous with cosolvent or surfactant or cyclodextrin

fatty acid lost after 6-day incubation [1] | Structure (SMILES) | solubility [2]
34% | CCCCCCCCCCCCCC(=O)O [myristic acid] | –
15% | CCCCCCCC/C=C\CCCCCCCC(=O)O [oleic acid] | –

Structure (SMILES) | fatty acid lost after 6-day incubation [1] | solubility [2]
CCCCCCCCCCCC(=O)O [lauric acid] | 50% | > 20 µg/mL
